Active and inactive are the calls of the source.
What was measured:
[1] = target: Transitional endoplasmic reticulum ATPase (Homo sapiens, UniProt P55072, C522A); test: C522A mutant p97 ATPase inhibitors, dose response, counter-screen for p97 inhibitor project, biochemical, luminescence (AID 1544)
[2] = viability of uninfected HEp-2 cells – cell-based, HTS, cytotoxicity control for RSV inhibitor project, dose response (AID 2410); format: functional; conditions: human respiratory syncytial virus
[3] = target: Transitional endoplasmic reticulum ATPase (Homo sapiens, UniProt P55072); test: p97 ATPase inhibitors, dose response, biochemical (AID 1534)
Chain of Transitional endoplasmic reticulum ATPase (Homo sapiens, UniProt P55072) (P55072 whole entry): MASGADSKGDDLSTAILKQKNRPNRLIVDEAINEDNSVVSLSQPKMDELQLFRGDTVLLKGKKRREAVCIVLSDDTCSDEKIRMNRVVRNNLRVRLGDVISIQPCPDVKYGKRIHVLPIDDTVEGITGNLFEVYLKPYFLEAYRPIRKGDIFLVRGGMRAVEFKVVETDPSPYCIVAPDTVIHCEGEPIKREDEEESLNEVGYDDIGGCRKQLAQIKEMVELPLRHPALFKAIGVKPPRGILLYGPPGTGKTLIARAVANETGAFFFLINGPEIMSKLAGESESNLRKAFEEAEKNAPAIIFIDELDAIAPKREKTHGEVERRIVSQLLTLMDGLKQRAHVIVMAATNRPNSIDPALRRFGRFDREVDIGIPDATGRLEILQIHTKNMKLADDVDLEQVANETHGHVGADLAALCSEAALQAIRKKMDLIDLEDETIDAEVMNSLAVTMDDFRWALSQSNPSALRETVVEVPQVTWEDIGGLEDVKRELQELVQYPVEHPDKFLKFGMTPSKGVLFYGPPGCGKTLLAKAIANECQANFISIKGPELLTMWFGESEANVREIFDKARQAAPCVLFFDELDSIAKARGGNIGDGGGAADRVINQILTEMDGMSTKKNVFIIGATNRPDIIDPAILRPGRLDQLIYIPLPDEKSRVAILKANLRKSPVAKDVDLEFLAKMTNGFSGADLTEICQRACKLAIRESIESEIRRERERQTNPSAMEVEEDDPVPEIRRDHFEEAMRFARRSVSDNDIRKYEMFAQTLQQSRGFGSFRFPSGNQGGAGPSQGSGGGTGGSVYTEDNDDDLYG

[4] = target: T1, Alkaline phosphatase, tissue-nonspecific isozyme (Homo sapiens, UniProt P05186)
T1 sequence (P05186 whole entry): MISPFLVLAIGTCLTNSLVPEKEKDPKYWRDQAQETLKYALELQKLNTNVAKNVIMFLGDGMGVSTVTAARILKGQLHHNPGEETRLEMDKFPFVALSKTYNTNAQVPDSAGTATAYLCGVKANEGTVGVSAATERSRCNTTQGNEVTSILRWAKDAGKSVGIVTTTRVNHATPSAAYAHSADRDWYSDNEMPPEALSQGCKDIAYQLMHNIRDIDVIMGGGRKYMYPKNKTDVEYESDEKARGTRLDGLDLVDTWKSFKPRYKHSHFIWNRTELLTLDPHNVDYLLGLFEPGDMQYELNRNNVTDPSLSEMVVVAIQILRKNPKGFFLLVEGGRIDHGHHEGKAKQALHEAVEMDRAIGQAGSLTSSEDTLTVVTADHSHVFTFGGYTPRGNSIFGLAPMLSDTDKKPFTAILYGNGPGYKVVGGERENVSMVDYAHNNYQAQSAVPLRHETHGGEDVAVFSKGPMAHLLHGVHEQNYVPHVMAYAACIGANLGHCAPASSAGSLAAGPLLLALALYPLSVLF

Genome polyprotein = Genome polyprotein (Hepatitis C virus, UniProt Q2Q167); test: disruption of hepatitis C core self-association – biochemical, TR-FRET, dose response (AID 2159); design: species or system Hepacivirus hominis;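 also: blocks dimerization of HCV core protein measured by TR-FRET between tagged core106 pairs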
Chain of Genome polyprotein (Q2Q167 whole entry): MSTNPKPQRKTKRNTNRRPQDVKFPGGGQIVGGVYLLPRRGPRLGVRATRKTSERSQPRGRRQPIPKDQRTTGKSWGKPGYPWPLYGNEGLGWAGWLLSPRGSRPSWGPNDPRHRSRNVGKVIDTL

[5] = target: T2, Probable nicotinate-nucleotide adenylyltransferase (Staphylococcus aureus (strain N315), UniProt P65502); format: functional, Staphylococcus aureus subsp. aureus N315;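 as to IC50 Mean: confirmatory dose-response retesting of NadD inhibitor hits first found in an ultra-high-throughput screen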
T2 sequence (P65502 whole entry): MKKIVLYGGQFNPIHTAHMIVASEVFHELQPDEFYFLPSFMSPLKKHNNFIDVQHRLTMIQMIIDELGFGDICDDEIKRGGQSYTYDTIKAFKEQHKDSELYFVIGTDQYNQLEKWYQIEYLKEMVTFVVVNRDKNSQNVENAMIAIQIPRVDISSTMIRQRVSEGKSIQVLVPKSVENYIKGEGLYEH

[6] = target: Induced myeloid leukemia cell differentiation protein Mcl-1 (Homo sapiens, UniProt Q07820); format: functional
[7] = target: T2, Probable nicotinate-nucleotide adenylyltransferase; format: functional, Staphylococcus aureus subsp. aureus N315; conditions: read-out: IC50_Mean
[8] = Luminescence Cell-Based Dose Confirmation HTS to Identify Inhibitors of Polyadenylation.; format: functional
[9] = target: Peroxisome proliferator-activated receptor gamma/Nuclear receptor coactivator 3 (Homo sapiens, UniProt P37231); format: functional;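 also: agonist potency for raising coactivator recruitment to the receptor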
[10] = target: Peroxisome proliferator-activated receptor gamma/Nuclear receptor coactivator 1 (Homo sapiens, UniProt P37231); format: functional;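 also: agonist potency as compounds enhance coactivator SRC-1 recruitment to PPARgamma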
Chain of Peroxisome proliferator-activated receptor gamma/Nuclear receptor coactivator 1 (P37231 whole entry): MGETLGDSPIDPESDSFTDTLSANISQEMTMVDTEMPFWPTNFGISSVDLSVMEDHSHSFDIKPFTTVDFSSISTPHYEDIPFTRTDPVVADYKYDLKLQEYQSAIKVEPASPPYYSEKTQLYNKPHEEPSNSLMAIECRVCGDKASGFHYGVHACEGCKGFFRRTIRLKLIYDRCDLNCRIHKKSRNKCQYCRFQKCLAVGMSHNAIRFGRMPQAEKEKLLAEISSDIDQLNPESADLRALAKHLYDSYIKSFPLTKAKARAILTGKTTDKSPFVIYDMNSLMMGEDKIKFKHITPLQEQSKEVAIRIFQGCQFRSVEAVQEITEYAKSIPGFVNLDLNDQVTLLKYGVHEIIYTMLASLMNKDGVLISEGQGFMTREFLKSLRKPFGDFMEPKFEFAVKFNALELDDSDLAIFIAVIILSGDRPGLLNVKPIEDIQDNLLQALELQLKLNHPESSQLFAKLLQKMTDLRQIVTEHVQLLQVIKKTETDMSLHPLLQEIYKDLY
Chain of Peroxisome proliferator-activated receptor gamma/Nuclear receptor coactivator 1 (Q15788 whole entry, further chain): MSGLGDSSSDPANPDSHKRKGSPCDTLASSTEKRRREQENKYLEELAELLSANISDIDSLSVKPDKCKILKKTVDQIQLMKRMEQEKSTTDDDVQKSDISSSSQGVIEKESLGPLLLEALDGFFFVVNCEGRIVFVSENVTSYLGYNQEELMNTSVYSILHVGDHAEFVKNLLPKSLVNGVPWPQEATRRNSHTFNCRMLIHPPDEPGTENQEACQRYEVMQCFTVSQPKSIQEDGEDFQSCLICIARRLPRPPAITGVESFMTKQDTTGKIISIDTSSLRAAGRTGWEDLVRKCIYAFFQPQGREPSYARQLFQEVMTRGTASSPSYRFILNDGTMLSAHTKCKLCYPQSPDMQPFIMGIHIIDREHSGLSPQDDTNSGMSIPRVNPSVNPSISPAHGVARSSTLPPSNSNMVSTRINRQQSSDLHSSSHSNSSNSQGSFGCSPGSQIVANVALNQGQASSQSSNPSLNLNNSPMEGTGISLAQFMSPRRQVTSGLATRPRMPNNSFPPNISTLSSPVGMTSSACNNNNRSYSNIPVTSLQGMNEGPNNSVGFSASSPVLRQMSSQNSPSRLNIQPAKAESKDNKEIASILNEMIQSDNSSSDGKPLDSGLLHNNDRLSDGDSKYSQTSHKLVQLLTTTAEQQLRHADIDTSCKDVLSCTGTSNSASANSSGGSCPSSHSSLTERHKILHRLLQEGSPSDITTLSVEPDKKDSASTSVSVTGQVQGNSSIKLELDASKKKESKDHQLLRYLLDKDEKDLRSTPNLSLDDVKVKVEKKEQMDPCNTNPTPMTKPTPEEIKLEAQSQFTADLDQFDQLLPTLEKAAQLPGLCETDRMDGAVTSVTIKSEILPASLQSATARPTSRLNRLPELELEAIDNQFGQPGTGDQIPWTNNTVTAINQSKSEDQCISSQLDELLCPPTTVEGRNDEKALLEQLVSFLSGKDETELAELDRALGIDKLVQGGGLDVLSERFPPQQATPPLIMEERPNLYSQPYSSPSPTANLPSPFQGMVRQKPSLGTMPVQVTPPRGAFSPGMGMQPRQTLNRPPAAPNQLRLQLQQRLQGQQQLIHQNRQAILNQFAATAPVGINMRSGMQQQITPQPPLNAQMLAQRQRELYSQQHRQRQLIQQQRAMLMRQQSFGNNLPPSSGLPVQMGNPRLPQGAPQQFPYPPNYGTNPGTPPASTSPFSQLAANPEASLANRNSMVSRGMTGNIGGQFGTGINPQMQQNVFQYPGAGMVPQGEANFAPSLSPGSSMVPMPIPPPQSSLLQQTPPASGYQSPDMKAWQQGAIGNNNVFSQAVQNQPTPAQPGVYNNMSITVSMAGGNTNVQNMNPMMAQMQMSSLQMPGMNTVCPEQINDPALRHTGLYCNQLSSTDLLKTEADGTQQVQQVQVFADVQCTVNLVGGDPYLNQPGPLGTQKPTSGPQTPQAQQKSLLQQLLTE

[11] = target: Peroxisome proliferator-activated receptor gamma/Nuclear receptor coactivator 2 (Homo sapiens, UniProt P37231); format: functional;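 also: agonist potency for raising coactivator recruitment to the receptor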
Chain of Peroxisome proliferator-activated receptor gamma/Nuclear receptor coactivator 2 (P37231 whole entry): as the sequence (P37231 whole entry) above
Chain of Peroxisome proliferator-activated receptor gamma/Nuclear receptor coactivator 2 (Q15596 whole entry, further chain): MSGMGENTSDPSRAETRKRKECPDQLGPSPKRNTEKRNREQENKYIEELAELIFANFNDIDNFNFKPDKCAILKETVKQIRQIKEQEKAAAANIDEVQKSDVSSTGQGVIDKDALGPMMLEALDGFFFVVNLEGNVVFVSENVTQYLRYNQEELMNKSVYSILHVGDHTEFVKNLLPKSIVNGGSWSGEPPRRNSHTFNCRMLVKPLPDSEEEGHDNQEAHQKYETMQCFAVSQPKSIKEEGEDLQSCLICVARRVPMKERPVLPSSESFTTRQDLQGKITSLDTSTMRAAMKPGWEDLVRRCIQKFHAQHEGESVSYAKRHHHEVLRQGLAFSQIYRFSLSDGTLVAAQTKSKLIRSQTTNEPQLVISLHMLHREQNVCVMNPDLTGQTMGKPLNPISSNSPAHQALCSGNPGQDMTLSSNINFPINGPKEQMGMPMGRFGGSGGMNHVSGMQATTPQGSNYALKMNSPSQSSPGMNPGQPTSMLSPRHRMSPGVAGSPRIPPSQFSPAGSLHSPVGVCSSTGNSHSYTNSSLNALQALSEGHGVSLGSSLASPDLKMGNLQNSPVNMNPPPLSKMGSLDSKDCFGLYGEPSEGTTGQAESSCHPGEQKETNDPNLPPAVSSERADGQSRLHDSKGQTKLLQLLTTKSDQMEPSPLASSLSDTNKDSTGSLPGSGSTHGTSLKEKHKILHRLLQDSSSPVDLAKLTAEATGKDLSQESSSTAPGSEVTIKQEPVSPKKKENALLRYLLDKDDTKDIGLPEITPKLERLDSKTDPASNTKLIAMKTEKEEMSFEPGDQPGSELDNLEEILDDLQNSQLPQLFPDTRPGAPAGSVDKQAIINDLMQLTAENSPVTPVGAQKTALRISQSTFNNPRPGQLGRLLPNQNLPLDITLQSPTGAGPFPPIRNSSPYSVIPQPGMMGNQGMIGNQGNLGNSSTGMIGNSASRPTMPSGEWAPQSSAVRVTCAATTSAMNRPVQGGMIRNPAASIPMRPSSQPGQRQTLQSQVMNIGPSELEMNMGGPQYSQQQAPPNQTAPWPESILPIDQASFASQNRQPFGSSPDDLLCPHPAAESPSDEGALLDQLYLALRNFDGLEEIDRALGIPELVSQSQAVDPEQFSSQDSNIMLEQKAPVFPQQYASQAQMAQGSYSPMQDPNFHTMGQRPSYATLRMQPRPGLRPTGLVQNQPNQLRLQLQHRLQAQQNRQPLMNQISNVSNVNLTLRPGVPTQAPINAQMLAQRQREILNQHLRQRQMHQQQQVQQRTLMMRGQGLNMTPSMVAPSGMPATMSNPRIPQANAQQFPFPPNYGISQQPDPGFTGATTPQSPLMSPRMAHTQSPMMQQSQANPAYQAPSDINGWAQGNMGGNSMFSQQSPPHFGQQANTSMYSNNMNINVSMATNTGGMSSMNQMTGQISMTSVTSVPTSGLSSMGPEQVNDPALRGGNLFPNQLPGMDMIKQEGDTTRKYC

[12] = target: T3, Heat shock factor protein 1 (Mus musculus, UniProt P38532); test: decrease of HSF1-responsive luciferase luminescence – cell-based, NIH3T3, dose retest, confirmation (AID 2382); format: functional;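 also: NIH3T3 fibroblasts with HSF1-driven luciferase reporter stressed by proteasome inhibitor MG132; luminescence from HSF1-driven luciferase expression after 8 hours of MG132 stress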
T3 sequence (P38532 whole entry): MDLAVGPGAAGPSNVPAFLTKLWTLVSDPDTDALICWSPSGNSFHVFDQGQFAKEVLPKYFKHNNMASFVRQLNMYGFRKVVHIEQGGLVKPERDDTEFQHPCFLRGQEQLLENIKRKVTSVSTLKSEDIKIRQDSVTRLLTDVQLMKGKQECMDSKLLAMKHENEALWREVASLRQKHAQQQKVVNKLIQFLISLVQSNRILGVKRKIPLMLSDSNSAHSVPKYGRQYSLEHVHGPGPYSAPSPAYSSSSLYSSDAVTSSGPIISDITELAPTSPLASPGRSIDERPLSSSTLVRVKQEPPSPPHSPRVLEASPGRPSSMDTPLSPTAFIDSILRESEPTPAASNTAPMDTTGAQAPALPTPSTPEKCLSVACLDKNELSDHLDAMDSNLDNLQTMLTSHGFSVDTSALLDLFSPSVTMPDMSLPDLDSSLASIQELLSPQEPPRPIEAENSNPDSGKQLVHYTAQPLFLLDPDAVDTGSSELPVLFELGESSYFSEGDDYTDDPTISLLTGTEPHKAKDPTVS

Streptococcus = test: GAS UMAA2166 growth inhibition – luminescence, BacTiterGlo, counter-screen for streptokinase expression inhibitor project, dose response (AID 1915); format: functional, organism-based;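 also: potency for reduction of bacterial viability or growth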
Streptokinase A = target: T4, Streptokinase A (Streptococcus pyogenes serotype M1, UniProt P10520); test: viability-normalized secreted streptokinase activity reduction – plasminogen activation absorbance, OD405, dose response (AID 1914); format: functional, Streptococcus pyogenes M1 GAS;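 also: secreted streptokinase activity via plasminogen activation per viability signal from cell pellet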
T4 sequence (P10520 whole entry): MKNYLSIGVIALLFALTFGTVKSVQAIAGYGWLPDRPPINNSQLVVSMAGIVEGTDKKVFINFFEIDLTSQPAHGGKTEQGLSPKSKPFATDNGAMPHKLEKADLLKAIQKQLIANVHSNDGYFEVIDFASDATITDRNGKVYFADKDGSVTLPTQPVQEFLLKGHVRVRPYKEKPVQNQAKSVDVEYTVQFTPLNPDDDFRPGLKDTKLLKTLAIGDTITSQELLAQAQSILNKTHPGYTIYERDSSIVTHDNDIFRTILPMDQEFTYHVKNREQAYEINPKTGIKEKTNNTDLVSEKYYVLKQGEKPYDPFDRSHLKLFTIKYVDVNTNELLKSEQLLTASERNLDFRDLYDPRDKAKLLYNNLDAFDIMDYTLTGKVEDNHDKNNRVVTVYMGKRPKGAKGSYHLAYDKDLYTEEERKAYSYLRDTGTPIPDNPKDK

X-box-binding protein 1 = X-box-binding protein 1 (Homo sapiens, UniProt P17861); format: functional, Cricetulus griseus;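 also: confirmatory dose-response counter-screen serving a CHOP assay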
[13] = system: Streptococcus sp. 'group A'; test: Streptococcus pyogenes SK(-)GAS viability under kanamycin – luminescence, BacTiterGlo, confirmation, counter-screen for streptokinase expression inhibitor project, dose response (AID 1900); format: functional, organism-based
[14] = target: Disintegrin and metalloproteinase domain-containing protein 17 (Homo sapiens, UniProt P78536); test: inhibition of ADAM17 substrate cleavage – biochemical, quenched FRET substrate, counter-screen for ADAM10 exosite inhibitor project, dose response (AID 743253)
[15] = HEK-293T cell viability reduction – luminescence, B-cell screen hits, cytotoxicity control for BCR NF-kB inhibitor project, dose response (AID 489021); format: functional, cell-based;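 also: HEK-293T cells carrying an NF-kB luciferase reporter; cells exposed to compound for about 14 hours before viability readout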
[16] = Trypanosoma cruzi growth suppression in host cells – NIH3T3 host cells, beta-gal luminescence, confirmation (AID 2044); format: functional, cell-based;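 also: intracellular parasites grown in NIH/3T3 mouse fibroblasts as host cells; luminescent beta-galactosidase reporter signal from transgenic T. cruzi replicating inside host cells; inhibitors lower the luminescence signal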
[17] = NIH3T3 cell viability loss – ATP luminescence, mouse fibroblasts, counter-screen, dose response (AID 2010); format: functional, cell-based;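 also: cells exposed to compound for about 90 hours before reading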
[18] = A Cell Based Secondary Assay To Explore Cytotoxicity of Compounds that Sensitize Mycobacterium Tuberculosis to Beta-Lactam Antibiotics.; format: functional
NS3 = NS3 (Hepatitis C virus, UniProt A3EZJ3); test: PubChem AID 2173; design: species or system Hepacivirus hominis
[19] = target: Sphingosine 1-phosphate receptor 4 (Homo sapiens, UniProt O95977); test: Fluorescence dose response cell-based high throughput screening assay for antagonists of the Sphingosine 1-Phosphate Receptor 4 (S1P4). [Related pubchem assays: 1524 (Confirmation in triplicates.), 1510 (Primary screen.)]; format: functional
14-3-3 protein gamma = 14-3-3 protein gamma (Homo sapiens, UniProt P61981); test: modulators of 14-3-3 gamma client binding – dose response (AID 711); format: functional
H9c2 = test: cells; format: functional, cell-based; conditions: Rattus norvegicus, H9c2, Myocardium
Estrogen receptor beta = Estrogen receptor beta (Homo sapiens, UniProt Q92731);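 also: recombinant ER-beta bound to coactivator SRC1 peptide in presence of estradiol agonist; inhibitors block coactivator peptide binding and lower the FRET signal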
Vero = test: viability of Vero cells under compound – cytotoxicity control for flavivirus capping enzyme inhibitors (AID 588742); format: functional; conditions: Chlorocebus sabaeus
Nonstructural protein 1 = Nonstructural protein 1 (Influenza A virus, UniProt Q194T2); format: functional, Influenza A virus (A/California/07/2009(H1N1))
[20] = target: T5, Mannose-6-phosphate isomerase (Homo sapiens, UniProt P34949); test: MPI inhibition at elevated mannose 6-phosphate – biochemical, fluorescence intensity, high mannose 6-phosphate, primary screen (AID 1220)
T5 sequence (P34949 whole entry): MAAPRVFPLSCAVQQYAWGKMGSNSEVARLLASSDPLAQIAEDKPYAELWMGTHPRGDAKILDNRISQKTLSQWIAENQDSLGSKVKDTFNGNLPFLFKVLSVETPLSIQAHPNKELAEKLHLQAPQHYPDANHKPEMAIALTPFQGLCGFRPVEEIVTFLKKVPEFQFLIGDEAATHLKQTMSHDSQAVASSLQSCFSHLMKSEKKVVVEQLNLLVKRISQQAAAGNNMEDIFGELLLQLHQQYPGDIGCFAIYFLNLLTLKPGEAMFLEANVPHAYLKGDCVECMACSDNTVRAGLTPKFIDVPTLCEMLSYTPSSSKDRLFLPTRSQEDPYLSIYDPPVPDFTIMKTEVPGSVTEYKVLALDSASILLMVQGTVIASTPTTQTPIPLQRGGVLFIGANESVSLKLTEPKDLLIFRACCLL

[21] = viability of HCT116 lacking mutant beta-catenin – cell-based, human colon tumor, dose response (AID 1045); format: functional;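 also: HCT116 colon tumor cells with beta catenin knocked out; cells exposed to compound for 60 hours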
[22] = viability of PTEN-deleted HCT116 cells – cell-based, HCT116 PTEN knockout, dose response (AID 1047); format: functional;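 also: HCT116 colon tumor cells with PTEN knocked out; cells exposed to compound for 60 hours before readout; potency for loss of cell viability measured by luminescence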
[23] = Luminescence Cell-Based Dose Retest to Confirm Inhibitors of Cancer Stem Cells. [Related pubchem assays (depositor defined):AID2717, AID2721]; format: functional; conditions: Homo sapiens
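For AC50 in this document: cells exposed to compound for roughly 70 hours or longer before luminescence read.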

## CC(C)c1nc2sc3c(S)ncnc3c2c2c1CCC2
[1]
  IC50: > 50 µM (not active)
[2]
  CC50: 14.3 µM (active)
[3]
  IC50: 42.2 µM (not active)

## CC(c1ccccc1)C(Cc1nc2ccccc2[nH]1)c1nc2ccccc2[nH]1 (centres undefined)
[4]
  EC50: 61.3 µM (not active)

## CN(C)C=O.O=C(Nc1cccc(S(=O)(=O)NC2=NCCCCC2)c1)c1cc(-c2ccco2)nc2ccccc12
Genome polyprotein
  IC50: > 49.8 µM (not active)
[5]
  IC50: 6.77 µM (active)
[6]
  IC50: 1.69 µM (active)
[7]
  IC50: 23.1 µM (active)

## CCN(CC)C(=O)Oc1ccc2c(c1)O/C(=C\c1ccco1)C2=O
[8]
  EC50: > 120 µM (not active)

## Cc1ccc(CN2CCN(Cc3cccc(OCCO)c3)CC2CCO)o1 (centres undefined)
[9]
  EC50: > 79.4 µM (not active)
[10]
  EC50: > 79.4 µM (not active)
[11]
  EC50: > 79.4 µM (not active)
[12]
  EC50: > 195 µM (not active)

## COc1ccc(CCN2C(=O)c3[nH]nc(-c4ccccc4O)c3C2c2cccc(Cl)c2)cc1 (centres undefined)
Streptococcus
  EC50: 17.6 µM (active)
Streptokinase A
  EC50: 17.1 µM (active)
X-box-binding protein 1
  Absolute IC50 (XBP1): 10 µM
[13]
  EC50: 5.5 µM (active)
[14]
  IC50: > 69.5 µM (inactive)

## CCc1ccc(/C=C2\SC(=S)N(CCC(=O)NC3=NCCS3)C2=O)cc1
[15]
  IC50: > 80 µM (inactive)

## O=C(Nc1ccncc1)Nc1cccc(Cl)c1Cl
[16]
  EC50: < 0.1 µM (active)
[17]
  EC50: > 60 µM (not active)
cells
  EC50: 0.209 µM (active)

## Cc1cc(N2CCCCCC2)nc(-c2ccccc2O)n1
[18]
  CC50: > 40 µM (active)

## Cc1cc(C)c(NC(=O)Cn2c(=O)n(-c3ccc(CC(=O)NCC4CCCO4)cc3)c(=O)c3ccccc32)c(C)c1 (centres undefined)
[4]
  EC50: > 100 µM (not active)

## C=CCn1c(SCC(=O)NCCCC)nc2scc(-c3ccco3)c2c1=O
NS3
  IC50: 37.5 µM (not active)

## CN(Cc1ccccc1)C(=S)NC(=O)c1ccc(-c2ccccc2)cc1
[18]
  CC50: > 40 µM (active)

## CN[C@H]1C[C@H]2O[C@@](C)([C@H]1OC)n1c3ccccc3c3c4c(c5c6ccccc6n2c5c31)C(=O)NC4
[19]
  IC50: 0.183 µM (active)

## COC(=O)C1=C(C)N(C)C(C)=C(C(=O)OC)C1c1ccc(C(=O)OC)cc1
14-3-3 protein gamma
  IC50: > 50 µM (not active)

## NC(=O)c1cccc2c1C(=O)N(C1CCCCC1)C2
H9c2
  IC50: > 79 µM (inactive)
Estrogen receptor beta
  IC50: 12.5 µM (active)

## C=CCN1C=C/C(=C/c2ccc3cc(C)ccc3[n+]2CC)c2ccccc21
Vero
  CC50: 4.96 µM (active)
Nonstructural protein 1
  IC50: 7.64 µM (active)
[20]
  IC50: 32.9 µM (active)

## O=C(Nc1ccc(F)cc1)C1C(c2ccccc2)C1(Cl)Cl (centres undefined)
[1]
  IC50: > 50 µM (not active)
[3]
  IC50: > 50 µM (not active)

## CCOC(=O)c1s/c(=N\C(=O)c2cc(OC)c(OC)c(OC)c2)n(C)c1C
[9]
  EC50: 49.7 µM (not active)
[10]
  EC50: 42 µM (not active)
[11]
  EC50: 30 µM (not active)

## O=C(CCCSc1ccccc1)Nc1nc(-c2ccco2)c(-c2ccco2)s1
NS3
  IC50: 5.62 µM (active)

## C#CCN(C)C(C)Cc1ccccc1 (centres undefined)
14-3-3 protein gamma
  IC50: > 50 µM (not active)

## Cc1cc(C2(c3ccc(O)c(C)c3)C(=O)Nc3ccccc32)ccc1O
X-box-binding protein 1
  Absolute IC50 (XBP1): 10 µM
[21]
  EC50: 17 µM (active)
[22]
  EC50: 17.4 µM (active)
[23]
  AC50: 5.36 µM (active)

— ChEMBL document CHEMBL1201862, “PubChem BioAssay data set” (2004)
